Assay: Thermal Stability Test
Format: physicochemical
Conditions: 45° C. oven for 21 days; compared with ascorbic acid (FIG. 4)
Procedure: FIG. 4 is a diagram of Thermal Stability Test observed at 45° C. oven for 21 days.
Competitive with 3-O-ethyl-ascorbic acid and Azelaic acid, inventive samples have best effect in tyrsoinase inhibition.

thermal stability: stable than ascorbic acid
SMILES: CCOC1=C(O)C(=O)O[C@@H]1[C@@H](O)COC(=O)CCCCCCCC(=O)O [Formula (IV), 3-O-ethyl-ascorbyl-6-nonanedioate]

Reference: patent US7741496B2, “Ascorbic acid derivatives” (Corum Inc., priority 2008, dated 2010)
